Measurements: patent US6846821B2, “Tetrahydrothiopy ranphthalazinone derivatives as PDE4 inhibitors” (Altana Pharma, AG, priority 1999, dated 2005)

Tests used:
PDE4 = assay: Inhibition of PDE4 activity (method of Bauer and Schwabe, microtitre plates); format: biochemical; settings: measured as −logIC50 (mol/l)
Method: The activity test was carried out according to the method of Bauer and Schwabe, which was adapted to microtitre plates (Naunyn-Schmiederberg's Arch. Pharmacol. 311, 193-198, 1980). In this test, the PDE reaction is carried out in the first step. In a second step, the resultant 5′-nucleotide is cleaved to the uncharged nucleoside by a snake venom 5′-nucleotidase from Crotalus Atrox. In the third step, the necleoside is separated from the remaining charged substrate on ion exchange columns. The columns are eluted directly into minivials using 2 ml of 30 mM ammonium formate (pH 6.0), to which a further 2 ml of scintillation fluid is added for counting.
The inhibitory values determined for the compounds according to the invention follow from the following table A which the numbers of the compounds correspond to the numbers of the examples.

melting point	Compound	Inhibition of PDE4 activity, −logIC50 (PDE4)
163 to 164 °C	COc1ccc(C2=NN(C3CCSCC3)C(=O)[C@H]3CC=CC[C@@H]23)c2c1OC(C)(C)C2 (relative stereo) [compound 1, (cis)-4-(2,3-Dihydro-2,2-dimethyl-7-methoxybenzofuran-4-yl)-2-(tetrahydrothiopyran-4-yl)-4a,5,8,8a-tetrahydro-2H-phthalazin-1-one]	9.34 mol/l
	COc1ccc(C2=NN(C3CCS(=O)(=O)CC3)C(=O)C3CC=CCC23)cc1OC1CCCC1 (stereo not drawn) [compound 10, (cis)-4-(3-Cyclopentyloxy-4-methoxyphenyl)-2-(1,1,-dioxohexahydro-1l^6-thiopyran-4-yl)-4a,5,8,8a-tetrahydro-2H-phthalazin-1-one]	9.43 mol/l
196 to 198 °C	COc1ccc(C2=NN(C3CCS(=O)(=O)CC3)C(=O)C3CC=CCC23)cc1OC (stereo not drawn) [compound 2, (cis)-4-(3,4-Dimethoxyphenyl)-2-(1,1-dioxohexahydro-1l^6-thiopyran-4-yl)-4a,5,8,8a-tetrahydro-2H-phthalazin-1-one]	8.45 mol/l
197 to 199 °C	COc1ccc(C2=NN(C3CC[S+]([O-])CC3)C(=O)C3CC=CCC23)cc1Cl (stereo not drawn) [compound 5, (cis)-4-(3-Chloro4-methoxyphenyl)-2-(1-oxo-hexahydro-1l^4-thiopyran-4-yl)-4a,5,8,8a-tetrahydro-2H-phthalazin-1-one]	8.20 mol/l
	CCOc1ccc(C2=NN(C3CCS(=O)(=O)CC3)C(=O)C3CC=CCC23)cc1OCC (stereo not drawn) [compound 6, (cis)-4-(3,4-Diethoxyphenyl)-2-(1,1-dioxohexahydro-1l^6-thiopyran-4-yl)-4a,5,8,8a-tetrahydro-2H-phthalazin-1-one]	8.02 mol/l
	COc1ccc(C2=NN(C3CC[S+]([O-])CC3)C(=O)C3CC=CCC23)cc1OC (stereo not drawn) [compound 3, (cis)-4-(3,4-Dimethoxyphenyl)-2-(1-oxo-hexahydro-1l^4-thiopyran-4-yl)-4a,5,8,8a-tetrahydro-2H-phthalazin-1-one]	8.51 mol/l
203 to 204 °C	COc1ccc(C2=NN(C3CCS(=O)(=O)CC3)C(=O)C3CC=CCC23)cc1OC [compound 9, (4aS,8aR)-(cis)-4-(3,4-Dimethoxyphenyl)-2-(1,1-dioxohexahydro-1l^6-thiopyran-4-yl)-4a,5,8,8a-tetrahydro-2H-phthalazin-1-one]	9.20 mol/l
261 to 263 °C	COc1ccc(C2=NN(C3CCS(=O)(=O)CC3)C(=O)C3CC=CCC23)c2c1OC(C)(C)C2 (stereo not drawn) [compound 7, (cis)-4-(2,3-Dihydro-2,2-dimethyl-7-methoxybenzofuran-4-yl)-2-(1,1-dioxohexahydro-1l^6-thiopyran4-yl)-4a,5,8,8a-tetrahydro-2H-phthalazin-1-one]	9.00 mol/l
170 to 171 °C	COc1ccc(C2=NN(C3CCSCC3)C(=O)[C@H]3CC=CC[C@@H]23)cc1Cl (relative stereo) [compound 4, (cis)-4-(3-Chloro-4-methoxyphenyl)-2-(tetrahydrothiopyran-4-yl)-4a,5,8,8a-tetrahydro-2H-phthalazin-1-one]	
